Reference: patent US20100173888A1 (Pfizer Inc, priority 2008, published 2010)
pIC50: −log10 of the molar value. Where a name gives a salt, the structure may show the parent alone.

target: human recombinant H-PGDS (Homo sapiens, UniProt O60760); assay: Fluorescence intensity h-PGDS TBA enzyme assay (PGH2 depletion, MDA/TBA fluorescence); format: biochemical; settings: 1:175,000 human recombinant H-PGDS, 42 second reaction, 3-fold serial dilutions, highest concentration typically 1 μM
Method in brief: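 Recombinant human H-PGDS preincubated with inhibitor 10 min at room temperature in pH 8.0 Tris, MgCl2, IgG, 2.5 mM glutathione, 0.5% DMSO. Reaction with 5.0 μM PGH2 stopped at 42 s with FeCl2/citric acid; MDA–TBA fluorescence (ex 530/em 565 nm) read after 70° C. IC50 by 4-parameter fit, 11 concentrations.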

Chain of human recombinant H-PGDS (O60760 whole entry): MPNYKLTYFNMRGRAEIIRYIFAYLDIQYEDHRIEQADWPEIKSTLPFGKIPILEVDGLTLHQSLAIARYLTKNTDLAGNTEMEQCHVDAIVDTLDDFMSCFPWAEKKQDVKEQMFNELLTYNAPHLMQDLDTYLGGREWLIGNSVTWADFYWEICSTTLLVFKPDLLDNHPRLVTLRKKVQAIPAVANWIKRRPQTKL

Row | Compound | pIC50
1 | CC(C)(O)[C@H]1CC[C@@H](NC(=O)c2ccc(-c3cccc(F)c3)nc2)C1 [Example 166, 6-(3-Fluorophenyl)-N-[(1R,3S)-3-(1-hydroxy-1-methylethyl)cyclopentyl]nicotinamide] | 7.45
2 | CN(C)CCNC(=O)[C@@H]1CC[C@H](NC(=O)c2ccc(-c3cccc(F)c3)nc2)C1 [Example 167, N-[(1S,3R)-3-{[2-(Dimethylamino)ethyl]carbamoyl}cyclopentyl]-6-(3-fluorophenyl)nicotinamide] | 7.55
3 | CN1CCN(C(=O)[C@@H]2CC[C@H](NC(=O)c3ccc(-c4cccc(F)c4)nc3)C2)CC1=O [Example 173, 6-(3-Fluorophenyl)-N-{(1S,3R)-3-[(4-methyl-3-oxopiperazin-1-yl)carbonyl]cyclopentyl}nicotinamide] | 7.67
4 | CN1CCC(NC(=O)[C@@H]2CC[C@H](NC(=O)c3ccc(-c4cccc(F)c4)nc3)C2)CC1 [Example 174, 6-(3-Fluorophenyl)-N-{(1S,3R)-3-[(1-methylpiperidin-4-yl)carbamoyl]cyclopentyl}nicotinamide] | 5.73
5 | NC(=O)[C@@H]1CC[C@H](NC(=O)c2ccc(-c3cccc(F)c3)nc2)C1 [Example 175, N-[(1S,3R)-3-Carbamoylcyclopentyl]-6-(3-fluorophenyl)nicotinamide] | 7.69
6 | NC1CCN(C(=O)[C@@H]2CC[C@H](NC(=O)c3ccc(-c4cccc(F)c4)nc3)C2)CC1 [Example 177, N-{(1S,3R)-3-[(4-Aminopiperidin-1-yl)carbonyl]cyclopentyl}-6-(3-fluorophenyl)nicotinamide] | 7.67
7 | CN1CCN(C(=O)[C@H]2CC[C@@H](NC(=O)c3ccc(-c4cccc(F)c4)nc3)C2)CC1=O [Example 182, 6-(3-Fluorophenyl)-N-[(1R,3S)-3-[(4-methyl-3-oxopiperazin-1-yl)carbonyl]cyclopentyl}nicotinamide] | 7.75
8 | CN(C)CCNC(=O)[C@H]1CC[C@@H](NC(=O)c2ccc(-c3cccc(F)c3)nc2)C1 [Example 183] | 7.12
9 | O=C(N[C@@H]1CC[C@H](C(=O)N2CCN(CCO)CC2)C1)c1ccc(-c2cccc(F)c2)nc1 [Example 184] | 7.69
10 | COCCNC(=O)[C@H]1CC[C@@H](NC(=O)c2ccc(-c3cccc(F)c3)nc2)C1 [Example 185] | 7.60
11 | NC(=O)[C@H]1CC[C@@H](NC(=O)c2ccc(-c3cccc(F)c3)nc2)C1 [Example 186, N-[(1R,3S)-3-Carbamoylcyclopentyl]-6-(3-fluorophenyl)nicotinamide] | 7.62
12 | NC1CCN(C(=O)[C@H]2CC[C@@H](NC(=O)c3ccc(-c4cccc(F)c4)nc3)C2)CC1 [Example 187] | 7.51
13 | C[C@@H](CO)NC(=O)[C@H]1CCC[C@@H](NC(=O)c2ccc(-c3cccc(F)c3)nc2)C1 [Example 188] | 7.77
14 | N[C@@H]1[C@H]2CN(C(=O)[C@H]3CCC[C@@H](NC(=O)c4ccc(-c5cccc(F)c5)nc4)C3)C[C@@H]12 [Example 190, N-cis-3-{[(1R,5S,6S)-6-Amino-3-azabicyclo[3.1.0]hex-3-yl]carbonyl}cyclohexyl]-6-(3-fluorophenyl)nicotinamide hydrochloride] | 7.76
15 | O=C(N[C@H]1CC[C@H](C(=O)NC2CCNCC2)CC1)c1ccc(-c2cccc(F)c2)nc1 [Example 201, 6-(3-Fluorophenyl)-N-[trans-4-(piperidin-4-ylcarbamoyl)cyclohexyl]nicotinamide] | 7.51
16 | O=C(N[C@H]1CC[C@H](N2CCCC2)CC1)c1ccc(-c2cccc(F)c2)nc1 [Example 213, 6-(3-Fluorophenyl)-N-(trans-4-pyrrolidin-1-ylcyclohexyl)nicotinamide] | 7.44
17 | CC(C)(O)C(=O)N[C@H]1CC[C@@H](NC(=O)c2ccc(-c3cccc(F)c3)nc2)CC1 [Example 216, 6-(3-Fluorophenyl)-N-{cis-4-[(2-hydroxy-2-methylpropanoyl)amino]cyclohexyl}nicotinamide] | 7.50
18 | CN1CCC(C(=O)N[C@H]2CC[C@@H](NC(=O)c3ccc(-c4cccc(F)c4)nc3)CC2)CC1 [Example 218, 6-(3-fluorophenyl)-N-(cis-4-{[(1-methylpiperidin-4-yl)carbonyl]amino}cyclohexyl)nicotinamide] | 7.10
19 | O=C(CO)N[C@H]1CC[C@@H](NC(=O)c2ccc(-c3cccc(F)c3)nc2)CC1 [Example 220, 6-(3-fluorophenyl)-N-[cis-4-(glycoloylamino)cyclohexyl]nicotinamide] | 7.49
20 | CN(C)CC(=O)N[C@H]1CC[C@@H](NC(=O)c2ccc(-c3cccc(F)c3)nc2)CC1 [Example 221, N-{cis-4-[(N,N-dimethylglycyl)amino]cyclohexyl}-6-(3-fluorophenyl)nicotinamide] | 7.28
21 | NCC(=O)N[C@H]1CC[C@@H](NC(=O)c2ccc(-c3cccc(F)c3)nc2)CC1 [Example 224, 6-(3-fluorophenyl)-N-[cis-4-(glycylamino)cyclohexyl]nicotinamide] | 7.13

The remaining compounds from weak to strong by pIC50, led by results:

Row | pIC50 | Compound
22 | 7.77 | CN(C)C(=O)[C@H]1CC[C@@H](NC(=O)c2ccc(-c3cccc(F)c3)nc2)C1 [Example 165, N-[(1R,3S)-3-Dimethylcarbamoyl-cyclopentyl]-6-(3-fluorophenyl)nicotinamide]
23 | 7.82 | COCCNC(=O)[C@@H]1CC[C@H](NC(=O)c2ccc(-c3cccc(F)c3)nc2)C1 [Example 169, 6-(3-Fluorophenyl)-N-{(1S,3R)-3-[(2-methoxyethyl)carbamoyl]cyclopentyl}nicotinamide]
24 | 7.83 | C[C@@H](CO)NC(=O)[C@H]1CCC[C@@H](NC(=O)c2ccc(-c3cccc(F)c3)nc2)C1 [Example 194]
25 | 7.87 | C[C@H](O)C(=O)N[C@@H]1CCC[C@H](NC(=O)c2ccc(-c3cccc(F)c3)nc2)C1 [Example 206, 6-(3-Fluorophenyl)-N-{cis-3-{[(2S)-2-hydroxypropanoyl]amino}cyclohexyl]nicotinamide]
26 | 7.89 | CN(C(=O)[C@H]1CC[C@H](NC(=O)c2ccc(-c3cccc(F)c3)nc2)CC1)C1CCNCC1 [Example 211, 6-(3-Fluorophenyl)-N-{trans-4-[methyl(piperidin-4-yl)carbamoyl]cyclohexyl}nicotinamide]
27 | 7.99 | CCC(O)CNC(=O)[C@H]1CCC[C@@H](NC(=O)c2ccc(-c3cccc(F)c3)nc2)C1 (stereo partly shown) [Example 197]
28 | 8.02 | N[C@@H]1[C@H]2CN(C(=O)[C@H]3CC[C@H](NC(=O)c4ccc(-c5cccc(F)c5)nc4)CC3)C[C@@H]12 [Example 210, N-(trans-4-{[(1R,5S,6S)-6-Amino-3-azabicyclo[3.1.0]hex-3-yl]carbonyl}cyclohexyl)-6-(3-fluorophenyl)nicotinamide]
29 | 8.05 | O=C(N[C@H]1CC[C@@H](C(=O)N2CCNCC2)C1)c1ccc(-c2cccc(F)c2)nc1 [Example 176, 6-(3-Fluorophenyl)-N-[(1S,3R)-3-(piperazin-1-ylcarbonyl)cyclopentyl]nicotinamide]
30 | 8.05 | O=C(N[C@@H]1CC[C@H](C(=O)N2CC[C@@H](F)C2)C1)c1ccc(-c2cccc(F)c2)nc1 [Example 180, 6-(3-Fluorophenyl)-N-[(1R,3S)-3-{[(3R)-3-fluoropyrrolidin-1-yl]carbonyl}cyclopentyl]nicotinamide]
31 | 8.19 | CC(C)(CCO)NC(=O)[C@@H]1CC[C@H](NC(=O)c2ccc(-c3cccc(F)c3)nc2)C1 [Example 172, 6-(3-Fluorophenyl)-N-{(1S,3R)-3-[(3-hydroxy-1,1-dimethylpropyl)carbamoyl]cyclopentyl}nicotinamide]
32 | 8.20 | CC(C)(O)CNC(=O)[C@@H]1CC[C@H](NC(=O)c2ccc(-c3cccc(F)c3)nc2)C1 [Example 171, 6-(3-Fluorophenyl)-N-{(1S,3R)-3-[(2-hydroxy-2-methylpropyl)carbamoyl]cyclopentyl}nicotinamide]
33 | 8.23 | CC(O)[C@H]1CC[C@H](NC(=O)c2ccc(-c3cccc(F)c3)nc2)CC1 (stereo partly drawn) [Example 215, 6-(3-Fluorophenyl)-N-[trans-4-(1-hydroxyethyl)cyclohexyl]nicotinamide]
34 | 8.24 | O=C(N[C@@H]1CC[C@H](C(=O)N2CC[C@H](F)C2)C1)c1ccc(-c2cccc(F)c2)nc1 [Example 181, 6-(3-Fluorophenyl)-N-[(1R,3S)-3-{[(3S)-3-fluoropyrrolidin-1-yl]carbonyl}cyclopentyl]nicotinamide]
35 | 8.25 | O=C(N[C@@H]1CC[C@H](C(=O)N2CCOCC2)C1)c1ccc(-c2cccc(F)c2)nc1 [Example 179, 6-(3-Fluorophenyl)-N-[(1R,3S)-3-(morpholin-4-ylcarbonyl)cyclopentyl]nicotinamide]
36 | 8.28 | COC1(CO)CCC(NC(=O)c2ccc(-c3cccc(F)c3)nc2)CC1 (stereo not shown) [Example 225, 6-(3-Fluorophenyl)-N-[4-(hydroxymethyl)-4-methoxycyclohexyl]nicotinamide]
37 | 8.36 | O=C(N[C@H]1CC[C@@H](C(=O)N2CCC(CCO)CC2)C1)c1ccc(-c2cccc(F)c2)nc1 [Example 168, 6-(3-Fluorophenyl)-N-[(1S,3R)-3-{(4-(2-hydroxyethyl)piperidin-1-yl]carbonyl}cyclopentyl]nicotinamide]
38 | 8.37 | O=C(N[C@H]1CC[C@@H](C(=O)N2CCOCC2)C1)c1ccc(-c2cccc(F)c2)nc1 [Example 170, 6-(3-Fluorophenyl)-N-[(1S,3R)-3-(morpholin-4-ylcarbonyl)cyclopentyl]nicotinamide]
39 | 8.52 | CCC(O)[C@H]1CC[C@H](NC(=O)c2ccc(-c3cccc(F)c3)nc2)CC1 (stereo partly drawn) [Example 214, 6-(3-Fluorophenyl)-N-[trans-4-(1-hydroxypropyl)cyclohexyl]nicotinamide]
40 | 8.64 | O=C(N[C@H]1CC[C@H]([C@H](O)C2CC2)CC1)c1ccc(-c2cccc(F)c2)nc1 [Example 212, N-[4-trans-((R)-Cyclopropylhydroxymethyl)cyclohexyl]-6-(3-fluorophenyl)nicotinamide]
